We go through 7 molecules from US20240383874A1, “BENZENE RING DERIVATIVE, AND COMPOSITION AND PHARMACEUTICAL USE THEREOF” (Xizang Haisco Pharmaceutical Co., Ltd., priority 2020, published 2024).

Where a name gives a salt, the structure may show the parent alone.

The first experiment has as its system 22RV1 cells. In words: Experiment 2 on inhibiting 22RV1 cell proliferation (7 days, CellTiter-Glo). In kind it is cell-based. The conditions noted are these: 1% css-FBS phenol red-free medium, incubated with compound 7 days, read-out: IC50 values on proliferation inhibition of 22RV1 cells. A digest of the protocol:
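Survival measured by CellTiter-Glo after 7 days of compound exposure, normalised to DMSO controls, with IC50 fitted by dose-response. Cells (22RV1, 2000/well) were seeded overnight in 1% css-FBS phenol red-free medium before dosing.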
(In ATP-based viability assays light output follows the ATP content of the culture.)
Take `CC(C)(c1ccc(OCc2ccnc(N3CCN(CC4CCN(C5CCN(c6ccc7c(c6)C(=O)N(C6CCC(=O)NC6=O)C7=O)CC5)CC4)CC3)n2)cc1)c1cc(Cl)c(OCCCl)c(C#N)c1` (stereo not shown) [Compound 11, 3-chloro-2-(2-chloroethoxy)-5-(2-(4-((2-(4-((1′-(2-(2,6-dioxopiperidin-3-yl)-1,3-dioxoisoindolin-5-yl)-[1,4′-bipiperidin]-4-yl)methyl)piperazin-1-yl)pyrimidin-4-yl)methoxy)phenyl)propan-2-yl)benzonitrile]: the IC50 came to 356 nM.

The same experiment, now with this note: Homo sapiens, 22Rv1, 168 h, 1% css-FBS phenol red-free medium, incubated with compound 7 days, read-out: IC50 values on proliferation inhibition of 22RV1 cells.
`Cn1c(=O)n(C2CCC(=O)NC2=O)c2ccc(N3CCC(C4CCN(CC5CN(c6nccc(COc7ccc(C(C)(C)c8cc(Cl)cc(C#N)c8)cc7)n6)C5)CC4)CC3)cc21` (stereo not shown) [Compound 103 trifluoroacetate, 3-chloro-5-(2-(4-((2-(3-((1′-(1-(2,6-dioxopiperidin-3-yl)-3-methyl-2-oxo-2,3-dihydro-1H-benzo[d]imidazol-5-yl)-[4,4′-bipiperidin]-1-yl)methyl)azetidin-1-yl)pyrimidin-4-yl)methoxy)phenyl)propan-2-yl)benzonitrile]: the IC50 was found to be 823 nM.
The same measure, in the same setting: then `CC(C)(c1ccc(OCc2ccnc(N3CCN(C4CCN(CC5CCN(c6ccc7c(c6)C(=O)N(C6CCC(=O)NC6=O)C7=O)C5)C4)CC3)n2)cc1)c1cc(Cl)cc(C#N)c1` (stereo not shown) [Compound 62 trifluoroacetate, 3-chloro-5-(2-(4-((2-(4-(1-((1-(2-(2,6-dioxopiperidin-3-yl)-1,3-dioxoisoindolin-5-yl)pyrrolidin-3-yl)methyl)pyrrolidin-3-yl)piperazin-1-yl)pyrimidin-4-yl)methoxy)phenyl)propan-2-yl)benzonitrile], with 735 nM; and `CCOc1c(Cl)cc(C(C)(C)c2ccc(OCc3ccnc(N4CC5(CCC(N6CCC(c7ccc8c(c7)n(C)c(=O)n8C7CCC(=O)NC7=O)CC6)CC5)C4)n3)cc2)cc1C#N` (stereo not shown) [Compound 121 trifluoroacetate, 3-chloro-5-(2-(4-((2-(7-(4-(1-(2,6-dioxopiperidin-3-yl)-3-methyl-2-oxo-2,3-dihydro-1H-benzo[d]imidazol-5-yl)piperidin-1-yl)-2-azaspiro[3.5]nonan-2-yl)pyrimidin-4-yl)methoxy)phenyl)propan-2-yl)-2-ethoxybenzonitrile], with 842 nM.
For the molecule `CN(CC1CCN(c2nccc(COc3ccc(C(C)(C)c4cc(Cl)cc(C#N)c4)cc3)n2)CC1)C1CCN(c2ccc3c(c2)n(C)c(=O)n3C2CCC(=O)NC2=O)CC1` (stereo not shown) [Compound 114 trifluoroacetate, 3-chloro-5-(2-(4-((2-(4-(((1-(1-(2,6-dioxopiperidin-3-yl)-3-methyl-2-oxo-2,3-dihydro-1H-benzo[d]imidazol-5-yl)piperidin-4-yl)(methyl)amino)methyl)piperidin-1-yl)pyrimidin-4-yl)methoxy)phenyl)propan-2-yl)benzonitrile], the IC50 turned out to be 665 nM.
Turning to `CC(C)(c1ccc(OCc2ccnc(N3CC4CN(C5CCN(C6CN(c7ccc8c(c7)C(=O)N(C7CCC(=O)NC7=O)C8=O)C6)CC5)CC4C3)n2)cc1)c1cc(Cl)cc(C#N)c1` (stereo not shown) [Compound 81 trifluoroacetate, 3-chloro-5-(2-(4-((2-(5-(1-(1-(2-(2,6-dioxopiperidin-3-yl)-1,3-dioxoisoindolin-5-yl)azetidin-3-yl)piperidin-4-yl)hexahydropyrrolo[3,4-c]pyrrol-2(1H)-yl)pyrimidin-4-yl)methoxy)phenyl)propan-2-yl)benzonitrile], the IC50 came to 484 nM.
For the molecule `Cn1c(=O)n(C2CCC(=O)NC2=O)c2ccc(C3CCN(CC4CCN(C5CC6(CCN(c7nccc(COc8ccc(C(C)(C)c9cc(Cl)cc(C#N)c9)cc8)n7)CC6)C5)CC4)CC3)cc21` (stereo not shown) [Compound 108 trifluoroacetate, 3-chloro-5-(2-(4-((2-(2-(4-((4-(1-(2,6-dioxopiperidin-3-yl)-3-methyl-2-oxo-2,3-dihydro-1H-benzo[d]imidazol-5-yl)piperidin-1-yl)methyl)piperidin-1-yl)-7-azaspiro[3.5]nonan-7-yl)pyrimidin-4-yl)methoxy)phenyl)propan-2-yl)benzonitrile], the IC50 was determined as 251 nM.
